Columns and labels:
[1] = test system: 7W cells stably transfected with APP; assay: […] assay in 7W APP transfected cells; type: cell-based; conditions: 1 μM agent, 24 h
Description: 7W CHO cells were seeded at 50,000 cells/well in a 96 wells plate for 24 h. Then their medium was changed for fresh medium supplemented with 1 μM of the agent(s) of interest (e.g., tropisetron, disulfiram, honokiol, and/or nimetazepam). After 24 h, 20 μl of the medium was added to 2 μl of the complete protease inhibitor with 1 μM EDTA and kept at 4° C. until analysis. 2 μl of that medium was treated with the Perkin Elmer (PE) […]® Aβ kit to determine the amount of Aβ42 secreted by the cells in 24 h using the PE-Enspire reader. Another aliquot of 2 μl of the medium was diluted with 50 μl of the PE […]® buffer and was treated with the PE […]® sAPPαkit to determine the amount of sAPPαsecreted by the cells in 24 h. For the assay, 2 μl of the final mixture was treated with the acceptor bead and the donor antibody followed by addition of the donor beads and the […]® signal was measured using a PE-Enspire reader. For measurement of APPneo, the 50,000 cells were treated after seeding with fresh medium supplemented with or without the agent(s), but without fetal bovine serum (FBS), in order to induce the formation of the APPneo fragment. After 24 h the medium was removed, the cells on the bottom of the wells were washed three times with phosphate buffered saline (PBS) and then lysed with 50 μl of the Perkin Elmer […]® buffer and with 10% of the complete protease inhibitor with EDTA. […]

[2] = test system: sAPPα, Aβ40 and Aβ42 levels; assay: Aβ40/42, sAPPα levels in brain (PD) of Alzheimer's disease transgenic mice (PDAPP model); type: in vivo; conditions: Tg mice; for sAPPα levels in hippocampus (Hip) and entorhinal cortex (ECx) / Aβ40 levels / Aβ42 levels: 10 mpk sc, 5 days
Description: […]® kits from Perkin Elmer (PE) were used to quantify sAPPα (cat#: AL254C), sAPPβ (cat#: AL232C), Aβ40 (cat #: AL275C), Aβ42 (cat #: AL276C) and Tau (cat#: AL271C) from brain homogenates. The samples are added to an AlphaPlate-384 (cat#: 6005350). Twenty microliters (μl) of acceptor bead antibody mix was added to each five μl cerebrospinal fluid (CSF) sample and allowed to incubate for one hour at room temperature. Next, 25 μl of donor beads were added and allowed to incubate in the dark for 30 minutes at room temperature. Fluorescence was then measured on an EnsPire 96-well plate reader (Perkin-Elmer).
ELISA kits from Invitrogen were also used to quantify Aβ1-40 (KHB3481) and Aβ1-42 (KHB3544) in duplicate from the CSF samples stored at −80° C. For assay, samples were thawed on ice and BSL-2 precautions practiced at all times. For the human Aβ 1-42 ultrasensitive ELISA, samples were diluted 1:2 (50 μl CSF plus 50 μl kit-provided standard diluent buffer). For the human Aβ1-40 ELISA, samples were diluted 1:15 (6.7 μl CSF plus […] of standard diluent buffer). Assays were performed according to manufacturer's instructions. In short, standards and samples were added to a plate pre-coated with a monoclonal capture antibody specific for the amino terminus of Hu Aβ. The samples were co-incubated with a rabbit detection antibody (Ab) specific for the carboxy terminus of the Aβ species being assayed for 3 hr at room temperature (Aβ 1-40) to overnight at 4° (Aβ 1-42) with gentle rocking After washing, bound rabbit Ab was detected using a horseradish peroxidase-labeled anti-rabbit secondary Ab. After washing again, bound HRP-anti rabbit Ab was detected colorimetrically (Spectramax 190, Molecular Devices) by the addition of a substrate solution. 1 mM 4-(2-Aminoethyl)benzenesulfonyl fluoride hydrochloride (AEBSF) protease inhibitor (101500, Calbiochem) was added to standards and samples.
In general, as part of the CNS exposure studies in Alzheimer's disease transgenic (Tg) mice (e.g., the PDAPP mouse model of Alzheimer's disease), tropisetron, nimetazepam, disulfiram and honokiol effects on biomarkers were also measured. In case of tropisetron the testing was done at 0.3 mpk, while in case of the other agent(s) (e.g., nimetazepam, disulfiram and honokiol) it was done at 10 mpk. From the collected brains the hippocampi were dissected. Levels of sAPPα, and Aβ1-40 and Aβ1-42 were measured by […] assay ([…] Perkin-Elmer), and Aβ1-42 (Invitrogen, sensitive ELISA kit) in brain homogenates of Tg mice. All procedures involved have been described (Galavan 2006, Proc Natl Acad Sci USA, 103, 7130-7135). […] The brain-to-plasma ratio (PK) of tropisetron and sAPPalpha/Aβ42 ratios (PD) were then determined.

MBP-eAPP230-624 = molecular target: T1, MBP-eAPP230-624 (Homo sapiens, UniProt P05067); assay: Small-angle X-ray scattering of MBP-eAPP230-624 incubated with the agent; type: binding; conditions: for MWcalc/MWseq / Rg (radius of gyration) / Dmax (maximum dimension): MBP-eAPP230-624 incubated with 50 μM agent, 4° C., 1 hour; for MWcalc/MWseq: ± 0.2; for Rg (radius of gyration): ± 2; for Dmax (maximum dimension): ± 10; for Binding to APP (MBP-eAPP230-624) and effect on conformation/dimerization: small-angle X-ray scattering, 50 μM agent
T1 construct: purified MBP-eAPP230-624 were incubated with 50 μM Disulfiram or 50 μM Sulfiram
Description: To 100 μg of purified MBP-eAPP230-624 were incubated with 50 μM Disulfiram or 50 μM Sulfiram in 20 mM sodium phosphate pH 7.4, 137 mM sodium chloride, 0.05% dimethyl sulfoxide at 4° C. for 1 hour. The control sample was incubated in the buffer alone. The samples were then concentrated to approximately 1.5 mg/ml using […] NML concentrators. Small-angle X-ray scattering data were collected using protein concentrations in the range of 0.25-1.5 mg/ml and an X-ray wavelength of 1.11 Å at beam line 12.3.1 (Advanced Light Source). Samples of the filtrate were used for buffer subtraction. Data were integrated with software customized for the beam line and processed with the program PRIMUS (Konarev (2003) Journal of Applied Crystallography 36, 1277-1282). The program GNOM (Svergun (1992) J. Appl. Crystallogr. 25, 495-503) was used to calculate the maximum dimension and the radius of gyration and to estimate the intensity of the scattering at zero angle for higher concentration samples. The molecule weight of each protein was calculated by comparing to the scattering of proteins of known molecule weight.
The apparent drop in molecular weight and maximum dimension (Dmax) are consistent with both sulfiram and disulfiram disrupting the MBP-eAPP230-624 dimers.

[3] = Brain uptake testing (PK): plasma and brain levels by LC/MS/MS; set-up: species or system mice; conditions: mouse, in vivo, sc; for Kp: 10 mg/kg
Description: In general, CNS exposure studies consisted of collection of heparinized plasma and brains after treatment with tropisetron, nimetazepam, disulfiram and honokiol following subcutaneous (sc) administration of the molecules at 10 mg/kg. Plasma and brain levels of the agent(s) were determined by quantitative LC/MS/MS methodology, conducted at Integrated Analytical Solutions (on the internet at ianalytical.net). Plasma samples were precipitated with acetonitrile:methanol (1:1) cocktail containing an internal standard. The brain samples were homogenized directly in ethylacetate or extracted from 5M guanidine homogenates using the liquid-liquid method. The resulting supernatant were evaporated to dryness and subjected to the LC/MS/MS analysis. For each agent 3 mice were used for analysis. The brain-to-plasma ratios and brain levels were then be calculated to identify the best candidate(s) for further testing.

[4] = Degradation in brain tissue; type: in vitro ADME; conditions: probably reduced at the disulfide bond
[5] = known for the benzodiazepine; cited from earlier work

T1 sequence (P05067 230-624 isoform P05067-4): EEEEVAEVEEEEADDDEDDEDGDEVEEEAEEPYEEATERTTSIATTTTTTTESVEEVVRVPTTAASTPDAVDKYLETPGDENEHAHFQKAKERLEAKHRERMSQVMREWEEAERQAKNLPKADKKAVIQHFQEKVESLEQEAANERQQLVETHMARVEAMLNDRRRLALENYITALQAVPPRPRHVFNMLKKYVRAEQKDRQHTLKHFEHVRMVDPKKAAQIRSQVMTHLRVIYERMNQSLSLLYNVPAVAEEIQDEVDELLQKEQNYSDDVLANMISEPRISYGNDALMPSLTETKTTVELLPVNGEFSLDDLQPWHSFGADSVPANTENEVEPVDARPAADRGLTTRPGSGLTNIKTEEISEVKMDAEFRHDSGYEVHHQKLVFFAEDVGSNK

Row | Structure (SMILES) | sAPPα levels secreted by 7W cells [1] | Aβ levels ([2]; 10 mpk) | sAPPα levels in hippocampus (Hip) and entorhinal cortex (ECx) [2] | MWcalc/MWseq (MBP-eAPP230-624) | Rg (radius of gyration) (MBP-eAPP230-624) | Dmax (maximum dimension) (MBP-eAPP230-624) | Binding affinity compared with sulfiram (MBP-eAPP230-624; inferred from greater effect in X-ray scattering) | Binding to APP (MBP-eAPP230-624) and effect on conformation/dimerization (MBP-eAPP230-624) | Binding to APP (MBP-eAPP230-624) and effect on conformation/dimerization (MBP-eAPP230-624; listed as disulfiram) | blood-brain-barrier / brain penetration [3] | Kp [3] | Stability in brain tissue [4] | Aβ40 levels [2] | Aβ42 levels [2] | sAPPα levels in hippocampus (Hip) and entorhinal cortex (ECx) ([2]; 10 mg/kg) | sAPPα levels in hippocampus (Hip) and entorhinal cortex (ECx) ([2]; listed as nimetazepam, 10 mg/kg) | blood-brain-barrier crossing [5]
1 | CCN(CC)C(=S)SSC(=S)N(CC)CC [Disulfiram, 1,1′,1″,1′″-[disulfanediylbis(carbonothioylnitrilo)]tetraethane] | increase | no changes | no changes | 1.5 | 51 Å | 160 Å | higher binding affinity | can bind to APP and disrupt APP dimerization | bind to MBP-eAPP230-624 and alter the conformation of the protein | low blood-brain-barrier penetration | < 0.1 | degrades rapidly | – | – | – | – | –
2 | C=CCc1ccc(O)c(-c2ccc(O)c(CC=C)c2)c1 [Honokiol, 2-(4-hydroxy-3-prop-2-enyl-phenyl)-4-prop-2-enyl-phenol] | – | – | no significant increase | – | – | – | – | – | – | penetrates the brain well | ~1 | – | No significant changes | No significant changes | – | – | –
3 | CCN(CC)C(=S)SC(=S)N(CC)CC [Sulfiram] | – | – | – | 1.7 | 53 Å | 170 Å | – | bind to MBP-eAPP230-624 and alter the conformation of the protein | – | – | – | – | – | – | – | – | –
4 | CN1C(=O)CN=C(c2ccccc2)c2cc([N+](=O)[O-])ccc21 [Nimetazepam, 2-methyl-9-nitro-6-phenyl-2,5-diazabicyclo [5.4.0]undeca-5,8,10,12-tetraen-3-one] | – | – | – | – | – | – | – | – | – | – | – | – | No significant changes | No significant changes | significant increase | increase | known to cross the blood-brain-barrier well

Source: patent publication US20150030683A1, “FORMULATIONS AND METHODS FOR THE TREATMENT OR PROPHYLAXIS OF PRE-MCI AND/OR PRE-ALZHEIMER'S CONDITIONS” (BUCK INSTITUTE FOR RESEARCH ON AGING, priority 2012, published 2015)
